Test systems include SF-295; A549; SR; SN12C; SK-MEL-28; TK-10; OVCAR-8; HOP-92; SW-620; MDA-MB-231; NCI-H23; HCC 2998; KM12; UO-31; K562; SNB-75; NCI-H460; NCI-H226; Malme-3M; A498.
Holding throughout (assay): NCI tumour cell line growth inhibition, 48 h

Results on eleven compounds are retold here after ChEMBL document CHEMBL1201862, “PubChem BioAssay data set” (2004).

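Dose response: 5 concentrations. Exposure: 48 h. Format: 96-well plates. Endpoint: linear interpolation; highest concentration if not reached. Abbreviation: GI50, concentration required for 50% inhibition of growth.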 Activity calls are given as the source filed them. Rule as the data show it: active = GI50 up to about 1.1 µM and inactive = higher.

As to `OCCOCn1nc(-c2ccccc2)nc1-c1cnccn1`, the GI50 with SF-295, in the assay on A549, with SR, in the assay with SN12C, in the assay on SK-MEL-28 and in the assay with TK-10 was > 100 µM (inactive) each time. Further, the GI50 in the assay on OVCAR-8, in the assay on HOP-92, with SW-620, in the assay on MDA-MB-231, in the assay with NCI-H23 and with HCC 2998 was > 100 µM (inactive) in each case. The GI50 in the assay with KM12 is > 100 µM (inactive); in the assay with UO-31, > 100 µM (inactive); with K562, > 100 µM (inactive); in the assay with SNB-75, 35 µM (inactive); with NCI-H460, > 100 µM (inactive).
For `CCN1CCC(O)(/C=C/c2ccccc2C)C(C(=O)/C=C/c2ccccc2C)C1` (stereo unspecified), the GI50 was 2.34 µM (inactive) in the assay on SF-295; 3.79 µM (inactive) with NCI-H226; 3.1 µM (inactive) with A549; 2.72 µM (inactive) in the assay on SR; 2.18 µM (inactive) with SN12C; 4.08 µM (inactive) in the assay on Malme-3M. The GI50 with SK-MEL-28 was 2.39 µM (inactive); in the assay with TK-10 it was 2.94 µM (inactive); with OVCAR-8 it was 2.71 µM (inactive); in the assay with HOP-92, 1.34 µM (inactive); with SW-620, 2.74 µM (inactive); in the assay with MDA-MB-231 it was 2.55 µM (inactive). The GI50 is 1.91 µM (inactive) in the assay on A498; 1.8 µM (inactive) in the assay with NCI-H23; 1.31 µM (inactive) in the assay on HCC 2998; 1.63 µM (inactive) in the assay with UO-31; 3.07 µM (inactive) in the assay with K562; 4.92 µM (inactive) in the assay with SNB-75. The GI50 with NCI-H460 was 1.53 µM (inactive).
For `CCN(CC)Cc1ccc2cccnc2c1O`, the GI50 with SF-295 was 3.48 µM (inactive); in the assay on NCI-H226, 6.08 µM (inactive); in the assay with A549, 6.34 µM (inactive); in the assay with SR, 0.995 µM (active); with SN12C, 4.12 µM (inactive); with Malme-3M, 2.81 µM (inactive). Besides, the GI50 with SK-MEL-28 was 7.35 µM (inactive); in the assay on TK-10, 9.64 µM (inactive); with OVCAR-8, 2.03 µM (inactive); in the assay with HOP-92, 11.6 µM (inactive); with SW-620, 3.3 µM (inactive); in the assay on MDA-MB-231, 5.53 µM (inactive). Moreover, the GI50 with A498 is 16.3 µM (inactive); in the assay on NCI-H23 it was 6.67 µM (inactive); in the assay with HCC 2998 it was 11.1 µM (inactive); in the assay on UO-31 it was 1.88 µM (inactive); in the assay on K562, 2.15 µM (inactive); with SNB-75, 0.577 µM (active). In addition, the GI50 in the assay with NCI-H460 was 3.82 µM (inactive).
Regarding `CCN(CC)CCN(C(=O)c1ccc(F)cc1)c1ccccc1N`, the GI50 in the assay with SF-295 was > 10 µM (inactive); in the assay on NCI-H226, 3.72 µM (inactive); in the assay on A549, > 10 µM (inactive); in the assay on SR, > 10 µM (inactive); in the assay with SN12C, > 10 µM (inactive); in the assay on Malme-3M, > 10 µM (inactive). Further, the GI50 in the assay on SK-MEL-28, with TK-10, in the assay on OVCAR-8, in the assay on SW-620, in the assay on MDA-MB-231 and in the assay with A498 was > 10 µM (inactive) each time. For the same compound, the GI50 in the assay with NCI-H23, with HCC 2998, with KM12, in the assay on UO-31, with K562 and with SNB-75 was > 10 µM (inactive) in each case. In addition, the GI50 in the assay with NCI-H460 is > 10 µM (inactive).
As to `CC(=O)OCCCCn1cnc2nc(Nc3ccccc3)nc(Cl)c21`, the GI50 in the assay on SF-295 is 57.1 µM (inactive); in the assay on NCI-H226 it was 57 µM (inactive); in the assay with A549 it was 61.7 µM (inactive); in the assay on SR, > 100 µM (inactive); in the assay on SN12C, 90.6 µM (inactive); in the assay with Malme-3M, 83.4 µM (inactive). Moreover, the GI50 is > 100 µM (inactive) in the assay on SK-MEL-28; > 100 µM (inactive) with TK-10; > 100 µM (inactive) in the assay with OVCAR-8; 51.4 µM (inactive) in the assay with HOP-92; > 100 µM (inactive) in the assay on SW-620; 35.2 µM (inactive) in the assay on MDA-MB-231. Further, the GI50 with A498 was 73.1 µM (inactive); in the assay on HCC 2998 it was 85.3 µM (inactive); with KM12, 91.4 µM (inactive); in the assay with UO-31, 40.6 µM (inactive); with K562, 99.1 µM (inactive); in the assay on SNB-75 it was 50.7 µM (inactive). For the same compound, the GI50 in the assay with NCI-H460 was > 100 µM (inactive).
In the case of `Nc1ccc(C2(c3ccc(N)cc3)C3CC4CC(C3)CC2C4)cc1`, the GI50 in the assay with SF-295 was 0.0592 µM (active); in the assay on NCI-H226, 19.9 µM (inactive); in the assay with SR, 14.5 µM (inactive); with SN12C, 18.5 µM (inactive); in the assay with SK-MEL-28, 14.9 µM (inactive); in the assay on TK-10, 18 µM (inactive). The GI50 was 7.73 µM (inactive) in the assay on OVCAR-8; 12.4 µM (inactive) in the assay with HOP-92; 11.4 µM (inactive) in the assay with SW-620; 17.4 µM (inactive) in the assay with MDA-MB-231; 21 µM (inactive) in the assay on A498; 12.4 µM (inactive) with NCI-H23. Besides, the GI50 with HCC 2998 was 20.8 µM (inactive); with KM12 it was 0.0975 µM (active); in the assay with UO-31, 18.2 µM (inactive); with K562 it was 10.3 µM (inactive).
On to `COc1ccc(/C=C/c2cnccn2)cc1OC`, for which the GI50 with SF-295, with NCI-H226, in the assay with A549, in the assay on SN12C, in the assay on Malme-3M and in the assay with SK-MEL-28 was > 10 µM (inactive) each time. For the same compound, the GI50 with TK-10, with OVCAR-8, in the assay on HOP-92, in the assay with SW-620, in the assay on MDA-MB-231 and in the assay on A498 was > 10 µM (inactive) in each case. For the same compound, the GI50 in the assay on NCI-H23, in the assay with HCC 2998, in the assay on KM12, with UO-31, with SNB-75 and in the assay on NCI-H460 was > 10 µM (inactive) throughout.
Take `Nc1ncnc2c1ncn2C=C=CCO`: the GI50 in the assay with SF-295, in the assay on NCI-H226, in the assay with SR, with SN12C, with Malme-3M and in the assay with SK-MEL-28 was > 100 µM (inactive) in each case. Besides, the GI50 in the assay with TK-10, in the assay with OVCAR-8, in the assay with HOP-92, in the assay on SW-620, with MDA-MB-231 and in the assay on A498 was > 100 µM (inactive) each time. The GI50 with NCI-H23, in the assay on HCC 2998, with KM12, in the assay on UO-31, in the assay on K562 and in the assay with SNB-75 was > 100 µM (inactive) throughout. For the same compound, in the assay with NCI-H460, the GI50 is > 100 µM (inactive).
For the compound `Cc1c2cc[n+](C)cc2c(C)c2c1[nH]c1ccc(O)cc12` [ELLIPTINIUM ACETATE], the GI50 is 5.79 µM (inactive) in the assay on SF-295; 1.12 µM (inactive) with NCI-H226; 0.447 µM (active) with A549; 0.532 µM (active) in the assay on SN12C; 1.75 µM (inactive) in the assay on Malme-3M; 6.87 µM (inactive) in the assay with SK-MEL-28. Besides, the GI50 in the assay with TK-10 is 68.2 µM (inactive); with OVCAR-8, 11.6 µM (inactive); in the assay on HOP-92 it was 19.3 µM (inactive); with SW-620, 14 µM (inactive); in the assay on MDA-MB-231, 50.9 µM (inactive); in the assay on A498 it was 52.5 µM (inactive). Moreover, the GI50 in the assay with NCI-H23 was 8.91 µM (inactive); with HCC 2998 it was 49.4 µM (inactive); with KM12, 2.53 µM (inactive); with UO-31, 17.7 µM (inactive); in the assay on K562, 16.9 µM (inactive); in the assay with SNB-75 it was 2.36 µM (inactive). In addition, the GI50 with NCI-H460 was 0.228 µM (active).
On to `c1ccc2c(c1)SC1Sc3ccccc3[S+]21` (stereo unspecified), for which the GI50 in the assay on SF-295 is 53.2 µM (inactive); with NCI-H226, 19.9 µM (inactive); with A549 it was 27.4 µM (inactive); in the assay with SN12C, 5.96 µM (inactive); in the assay with Malme-3M, 2.98 µM (inactive); in the assay on SK-MEL-28, 16.1 µM (inactive). Besides, the GI50 is 18.4 µM (inactive) with TK-10; 21.5 µM (inactive) in the assay on OVCAR-8; 10.4 µM (inactive) with HOP-92; 25.2 µM (inactive) with SW-620; 23.7 µM (inactive) with MDA-MB-231; 33.3 µM (inactive) in the assay on A498. For the same compound, the GI50 is 18.2 µM (inactive) with NCI-H23; 16.4 µM (inactive) in the assay on KM12; 20.8 µM (inactive) in the assay on UO-31; 6.07 µM (inactive) with K562; 38.4 µM (inactive) with SNB-75; 29.5 µM (inactive) in the assay on NCI-H460.
Regarding `NCCCCN(CCCN)Cc1ccccc1`, the GI50 with SF-295, in the assay with NCI-H226, with A549, with SN12C, in the assay on SK-MEL-28 and in the assay on TK-10 was > 100 µM (inactive) each time. The GI50 with OVCAR-8, with HOP-92, in the assay on SW-620, with MDA-MB-231, in the assay on A498 and with NCI-H23 was > 100 µM (inactive) throughout. For the same compound, the GI50 in the assay on HCC 2998 is > 100 µM (inactive); in the assay on KM12 it was > 100 µM (inactive); with UO-31 it was > 100 µM (inactive); in the assay with K562, > 100 µM (inactive); in the assay with SNB-75, 20.1 µM (inactive); in the assay with NCI-H460 it was > 100 µM (inactive).
